Experimental data: patent US12318477B2, “Injectable and inhalable formulations” (CYBIN UK LTD, priority 2021, dated 2025)
Marks after values point to notes of the source that are not given here.

Experiments:
[1] = In vivo pharmacokinetic (PK) profile following intramuscular (IM) dosing in rats; details: rat
[2] = pH-stability in 40 mM Britton-Robinson buffer: content (assay) by HPLC
human brain activity = details: human volunteers; cited from earlier work
[3] = pH-stability in 40 mM Britton-Robinson buffer: related substances; type: physicochemical
[4] = pH-stability in 40 mM Britton-Robinson buffer: pH measurement; type: physicochemical; details: for pH: Day 17 (10 days storage at 40° C. followed by 7 days at 50° C.)
Description: On preparation of each formulation, there was a drop in pH in the range of 0.14 units (pH 4 formulation) to 1.29 units (pH 9 formulation) this being due to the acidic nature of the drug substance.

[5] = Solubility of 20 mg/mL DMT fumarate in Britton-Robinson buffer at varied pH
[6] = nominal pH 4.0, Day 17 (10 days storage at 40° C. followed by 7 days at 50° C.)
[7] = nominal pH 5.0, Day 17 (10 days storage at 40° C. followed by 7 days at 50° C.)
[8] = nominal pH 6.0, Day 17 (10 days storage at 40° C. followed by 7 days at 50° C.)
[9] = nominal pH 6.5, Day 17 (10 days storage at 40° C. followed by 7 days at 50° C.)
[10] = nominal pH 7.0, Day 17 (10 days storage at 40° C. followed by 7 days at 50° C.)
[11] = nominal pH 7.0 sparged N2, Day 17 (10 days storage at 40° C. followed by 7 days at 50° C.)
[12] = nominal pH 7.5, Day 17 (10 days storage at 40° C. followed by 7 days at 50° C.)
[13] = nominal pH 8.0, Day 17 (10 days storage at 40° C. followed by 7 days at 50° C.)
[14] = nominal pH 9.0, Day 17 (10 days storage at 40° C. followed by 7 days at 50° C.)

With `O=C(O)/C=C/C(=O)O.[2H]C([2H])(Cc1c[nH]c2ccccc12)N(C)C` [SPL028i, α,α,-bis-deuterium-N,N-dimethyltryptamine fumarate salt] the “increase in AUC0-inf at 10 mg/kg dose compared to […] dose level” value ([1]; IM) was 237%, the “plasma levels at 30 mins compared with undeuterated DMT” value ([1]; […] (as fumarate) IM dose) was “significantly higher plasma levels” and the “Cmax compared with DMT (SPL026)” value ([1]; following IM dosing, p=0.005) was “significantly higher”.

With `CN(C)CCc1c[nH]c2ccccc12.O=C(O)/C=C/C(=O)O` [SPL026, N,N-dimethyltryptamine (DMT) fumarate salt] the “concentration change on storage” value ([2]; all formulations pH 4 to 9 (nominal), Day 7 or Day 17) was “no significant concentration changes”, the Concentration ([2]; nominal pH 4.0, Day 7 (7 days storage at 40° C.)) was 2.57 mg/mL and the Concentration [2, 6] was 2.52 mg/mL. It also gave a Concentration ([2]; nominal pH 4.0, Initial) of 2.47 mg/mL, a Concentration ([2]; nominal pH 5.0, Day 7 (7 days storage at 40° C.)) of 2.48 mg/mL and a Concentration [2, 7] of 2.52 mg/mL. For the same compound, the Concentration ([2]; nominal pH 5.0, Initial) was 2.50 mg/mL, the Concentration ([2]; nominal pH 6.0, Day 7 (7 days storage at 40° C.)) was 2.56 mg/mL and the Concentration [2, 8] was 2.48 mg/mL. For the same compound, the Concentration ([2]; nominal pH 6.0, Initial) was 2.51 mg/mL, the Concentration ([2]; nominal pH 6.5, Day 7 (7 days storage at 40° C.)) was 2.59 mg/mL and the Concentration [2, 9] was 2.51 mg/mL. It also gave a Concentration ([2]; nominal pH 6.5, Initial) of 2.49 mg/mL, a Concentration ([2]; nominal pH 7.0, Day 7 (7 days storage at 40° C.)) of 2.54 mg/mL and a Concentration [2, 10] of 2.45 mg/mL. For the same compound, the Concentration ([2]; nominal pH 7.0, Initial) was 2.54 mg/mL, the Concentration ([2]; nominal pH 7.0 UV Light, Initial) was 2.54 mg/mL and the Concentration ([2]; nominal pH 7.0 UV Light, on completion of light stressing (200 watt hours UVA, 0.6 million luxhours)) was 2.26^a mg · mL^−1. The Concentration ([2]; nominal pH 7.0 sparged N2, Day 7 (7 days storage at 40° C.)) was 2.54 mg/mL, the Concentration [2, 11] was 2.51 mg/mL and the Concentration ([2]; nominal pH 7.0 sparged N2, Initial) was 2.54 mg/mL. It also gave a Concentration ([2]; nominal pH 7.5, Day 7 (7 days storage at 40° C.)) of 2.55 mg/mL, a Concentration [2, 12] of 2.46 mg/mL and a Concentration ([2]; nominal pH 7.5, Initial) of 2.50 mg/mL. For the same compound, the Concentration ([2]; nominal pH 8.0, Day 7 (7 days storage at 40° C.)) was 2.49 mg/mL, the Concentration [2, 13] was 2.42 mg/mL and the Concentration ([2]; nominal pH 8.0, Initial) was 2.49 mg/mL. For the same compound, the Concentration ([2]; nominal pH 9.0, Day 7 (7 days storage at 40° C.)) was 2.41 mg/mL, the Concentration [2, 14] was 2.46 mg/mL and the Concentration ([2]; nominal pH 9.0, Initial) was 2.47 mg/mL. For the same compound, the “alpha power (EEG) relative to placebo” value (human brain activity) was “suppressed”, the “delta and theta power (EEG) relative to placebo” value (human brain activity) was “normalized/increased” and the “related substances peaks at preparation” value ([3]; all formulations, […]) was “no related substances peaks were present”. For the same compound, the Total related substances [3, 6] was “ND (ND—<0.02 area of total peak area)”, the Total related substances [3, 7] was 0.07% and the Total related substances [3, 8] was 0.09%. It also gave a Total related substances [3, 9] of 0.10%, a Total related substances [3, 10] of 0.26% and a Total related substances ([3]; nominal pH 7.0 UV Light, on completion of light stressing (200 watt hours UVA, 0.6 million luxhours), fumarate salt) of 1.68%. It also gave a Total related substances [3, 11] of 0.05%, a Total related substances [3, 12] of 0.42% and a Total related substances [3, 13] of 0.58%. For the same compound, the Total related substances [3, 14] was 0.61%, the “number of related substances peaks” value ([3]; pH 4, after 17 days storage) was “no peaks” and the “robustness of nitrogen sparged formulation versus unsparged equivalent” value ([3]; pH 7, after 17 days storage) was “significantly more robust”. The “number of related substances peaks” value ([3]; pH 9, after 17 days storage) was 3, the “Individual related substance, percentage area of total peak area” value ([3]; relative retention time 0.54, nominal pH 7 UV light (200 watt hours UVA, 0.6 million luxhours)) was 0.05% and the “Individual related substance, percentage area of total peak area” value ([3]; relative retention time 0.62, nominal pH 7 UV light (200 watt hours UVA, 0.6 million luxhours)) was 0.17%. The “Individual related substance, percentage area of total peak area” value ([3]; relative retention time 0.64, nominal pH 7 UV light (200 watt hours UVA, 0.6 million luxhours)) was 0.54%, the “Individual related substance, percentage area of total peak area” value ([3]; relative retention time 0.73, nominal pH 7, Day 17 (10 days storage at 40° C., 7 days storage at 50° C.)) was 0.09% and the “Individual related substance, percentage area of total peak area” value ([3]; relative retention time 0.73, nominal pH 7 UV light (200 watt hours UVA, 0.6 million luxhours)) was 0.23%. For the same compound, the “Individual related substance, percentage area of total peak area” value ([3]; relative retention time 0.73, nominal pH 7.5, Day 17 (10 days storage at 40° C., 7 days storage at 50° C.)) was 0.14%, the “Individual related substance, percentage area of total peak area” value ([3]; relative retention time 0.73, nominal pH 8, Day 17 (10 days storage at 40° C., 7 days storage at 50° C.)) was 0.15% and the “Individual related substance, percentage area of total peak area” value ([3]; relative retention time 0.73, nominal pH 9, Day 17 (10 days storage at 40° C., 7 days storage at 50° C.)) was 0.12%. The “Individual related substance, percentage area of total peak area” value ([3]; relative retention time 0.74, nominal pH 7 UV light (200 watt hours UVA, 0.6 million luxhours)) was 0.15%, the “Individual related substance, percentage area of total peak area” value ([3]; relative retention time 0.77, nominal pH 7 UV light (200 watt hours UVA, 0.6 million luxhours)) was 0.06% and the “Individual related substance, percentage area of total peak area” value ([3]; relative retention time 0.91, nominal pH 7, Day 17 (10 days storage at 40° C., 7 days storage at 50° C.)) was 0.05%. The “Individual related substance, percentage area of total peak area” value ([3]; relative retention time 0.91, nominal pH 7.5, Day 17 (10 days storage at 40° C., 7 days storage at 50° C.)) was 0.07%, the “Individual related substance, percentage area of total peak area” value ([3]; relative retention time 0.91, nominal pH 8, Day 17 (10 days storage at 40° C., 7 days storage at 50° C.)) was 0.09% and the “Individual related substance, percentage area of total peak area” value ([3]; relative retention time 0.91, nominal pH 9, Day 17 (10 days storage at 40° C., 7 days storage at 50° C.)) was 0.11%. The “Individual related substance, percentage area of total peak area” value ([3]; relative retention time 0.95, nominal pH 8, Day 17 (10 days storage at 40° C., 7 days storage at 50° C.)) was 0.05%, the “Individual related substance, percentage area of total peak area” value ([3]; relative retention time 1.11, nominal pH 7.5, Day 17 (10 days storage at 40° C., 7 days storage at 50° C.)) was 0.12% and the “Individual related substance, percentage area of total peak area” value ([3]; relative retention time 1.11, nominal pH 8, Day 17 (10 days storage at 40° C., 7 days storage at 50° C.)) was 0.22%. The “Individual related substance, percentage area of total peak area” value ([3]; relative retention time 1.11, nominal pH 9, Day 17 (10 days storage at 40° C., 7 days storage at 50° C.)) was 0.12%, the “Individual related substance, percentage area of total peak area” value ([3]; relative retention time 1.17, nominal pH 7 UV light (200 watt hours UVA, 0.6 million luxhours)) was 0.18% and the “Individual related substance, percentage area of total peak area” value ([3]; relative retention time 1.20, nominal pH 7 UV light (200 watt hours UVA, 0.6 million luxhours)) was 0.13%. The “Individual related substance, percentage area of total peak area” value ([3]; relative retention time 1.56, nominal pH 5, Day 17 (10 days storage at 40° C., 7 days storage at 50° C.)) was 0.07%, the “Individual related substance, percentage area of total peak area” value ([3]; relative retention time 1.56, nominal pH 6, Day 17 (10 days storage at 40° C., 7 days storage at 50° C.)) was 0.09% and the “Individual related substance, percentage area of total peak area” value ([3]; relative retention time 1.56, nominal pH 6.5, Day 17 (10 days storage at 40° C., 7 days storage at 50° C.)) was 0.10%. For the same compound, the “Individual related substance, percentage area of total peak area” value ([3]; relative retention time 1.56, nominal pH 6.5 with N2 (sparged with nitrogen), Day 17 (10 days storage at 40° C., 7 days storage at 50° C.)) was 0.05%, the “Individual related substance, percentage area of total peak area” value ([3]; relative retention time 1.56, nominal pH 7, Day 17 (10 days storage at 40° C., 7 days storage at 50° C.)) was 0.12% and the “Individual related substance, percentage area of total peak area” value ([3]; relative retention time 1.56, nominal pH 7 UV light (200 watt hours UVA, 0.6 million luxhours)) was 0.10%. For the same compound, the “Individual related substance, percentage area of total peak area” value ([3]; relative retention time 1.56, nominal pH 7.5, Day 17 (10 days storage at 40° C., 7 days storage at 50° C.)) was 0.09%, the “Individual related substance, percentage area of total peak area” value ([3]; relative retention time 1.56, nominal pH 8, Day 17 (10 days storage at 40° C., 7 days storage at 50° C.)) was 0.07% and the “Individual related substance, percentage area of total peak area” value ([3]; relative retention time 1.56, nominal pH 9, Day 17 (10 days storage at 40° C., 7 days storage at 50° C.)) was 0.38%. For the same compound, the pH ([4]; nominal pH 7.0) was 6.10, the pH ([4]; nominal pH 9.0) was 7.70 and the “drop in pH on preparation” value ([4]; pH 4 formulation) was 0.14 units. The “drop in pH on preparation” value ([4]; pH 9 formulation) was 1.29 units, the “pH following overnight storage” value ([5]; 20 mg/mL, ambient conditions, each solution) was “no changes from the initial pH values” and the appearance of solution ([5]; 20 mg/mL, pH 8) was “hazy”. The appearance of solution ([5]; 20 mg/mL, pH 9 and pH 10) was “contained a precipitate”, the content after filtration ([5]; each solution, including high pH solutions where precipitate was present) was “approximately the same content” and the “dissolution in test formulation” value ([5]; nominal 20 mg/mL in Britton-Robinson buffer, only swirling and shaking) was “very soluble”.
